Key:
Type in all cases: biochemical
SIK3 = SIK3 (Homo sapiens, UniProt Q9Y2K2); assay: Enzymatic activity assay SIK3, RapidFire mass spectrometry (phosphorylation of CHK-peptide); conditions: RapidFire MS, inhibition of SIK3; read-out: SIK3 RF IC50
Method in brief: (§1)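 Compounds (12-point, 3-fold, generally 30 μM to 170 pM) were pre-incubated 30 min at ambient temperature with SIK1 (5 nM), SIK2 (0.5 nM) or SIK3 (1.5 nM) in HEPES pH 7.0/magnesium acetate buffer. CHK-peptide (10 μM solution) and ATP (100 μM solution) were then added for 45 min before formic acid quench.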

SIK1 = SIK1 (Homo sapiens, UniProt P57059); assay: Enzymatic activity assay SIK1, RapidFire mass spectrometry (phosphorylation of CHK-peptide); conditions: RapidFire MS, inhibition of SIK1; read-out: SIK1 RF IC50
Method in brief: as §1

SIK2 = SIK2 (Homo sapiens, UniProt Q9H0K1); assay: Enzymatic activity assay SIK2, RapidFire mass spectrometry (phosphorylation of CHK-peptide); conditions: RapidFire MS, inhibition of SIK2; read-out: SIK2 RF IC50
Method in brief: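 SIK2 (0.5 nM) in pH 7.0 HEPES buffer with 10 mM Mg acetate phosphorylates CHK-peptide (10 μM solution) with 100 μM ATP solution, 45 min ambient, then formic acid quench.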

Chain of SIK1 (P57059 whole entry): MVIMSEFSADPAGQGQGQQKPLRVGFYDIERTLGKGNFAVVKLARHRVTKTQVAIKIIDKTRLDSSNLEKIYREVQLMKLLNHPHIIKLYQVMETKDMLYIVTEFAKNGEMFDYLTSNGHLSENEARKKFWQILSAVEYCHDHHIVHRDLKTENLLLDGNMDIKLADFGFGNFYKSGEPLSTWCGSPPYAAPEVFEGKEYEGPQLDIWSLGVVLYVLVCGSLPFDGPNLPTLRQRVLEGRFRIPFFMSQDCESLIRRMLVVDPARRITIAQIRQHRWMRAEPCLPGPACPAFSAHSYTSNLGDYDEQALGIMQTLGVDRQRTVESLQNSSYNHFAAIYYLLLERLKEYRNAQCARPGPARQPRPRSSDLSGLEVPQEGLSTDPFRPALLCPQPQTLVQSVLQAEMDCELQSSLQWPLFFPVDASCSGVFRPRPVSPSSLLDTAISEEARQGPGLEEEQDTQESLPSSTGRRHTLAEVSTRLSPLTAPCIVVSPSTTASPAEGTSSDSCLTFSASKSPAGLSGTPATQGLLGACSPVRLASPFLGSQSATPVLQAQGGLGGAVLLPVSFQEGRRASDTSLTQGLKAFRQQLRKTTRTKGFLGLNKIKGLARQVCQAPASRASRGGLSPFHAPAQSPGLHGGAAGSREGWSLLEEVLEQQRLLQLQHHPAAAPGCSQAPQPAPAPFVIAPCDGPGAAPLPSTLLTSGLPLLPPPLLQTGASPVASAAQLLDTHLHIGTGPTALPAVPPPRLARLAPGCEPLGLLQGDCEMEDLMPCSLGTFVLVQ
Chain of SIK2 (Q9H0K1 whole entry): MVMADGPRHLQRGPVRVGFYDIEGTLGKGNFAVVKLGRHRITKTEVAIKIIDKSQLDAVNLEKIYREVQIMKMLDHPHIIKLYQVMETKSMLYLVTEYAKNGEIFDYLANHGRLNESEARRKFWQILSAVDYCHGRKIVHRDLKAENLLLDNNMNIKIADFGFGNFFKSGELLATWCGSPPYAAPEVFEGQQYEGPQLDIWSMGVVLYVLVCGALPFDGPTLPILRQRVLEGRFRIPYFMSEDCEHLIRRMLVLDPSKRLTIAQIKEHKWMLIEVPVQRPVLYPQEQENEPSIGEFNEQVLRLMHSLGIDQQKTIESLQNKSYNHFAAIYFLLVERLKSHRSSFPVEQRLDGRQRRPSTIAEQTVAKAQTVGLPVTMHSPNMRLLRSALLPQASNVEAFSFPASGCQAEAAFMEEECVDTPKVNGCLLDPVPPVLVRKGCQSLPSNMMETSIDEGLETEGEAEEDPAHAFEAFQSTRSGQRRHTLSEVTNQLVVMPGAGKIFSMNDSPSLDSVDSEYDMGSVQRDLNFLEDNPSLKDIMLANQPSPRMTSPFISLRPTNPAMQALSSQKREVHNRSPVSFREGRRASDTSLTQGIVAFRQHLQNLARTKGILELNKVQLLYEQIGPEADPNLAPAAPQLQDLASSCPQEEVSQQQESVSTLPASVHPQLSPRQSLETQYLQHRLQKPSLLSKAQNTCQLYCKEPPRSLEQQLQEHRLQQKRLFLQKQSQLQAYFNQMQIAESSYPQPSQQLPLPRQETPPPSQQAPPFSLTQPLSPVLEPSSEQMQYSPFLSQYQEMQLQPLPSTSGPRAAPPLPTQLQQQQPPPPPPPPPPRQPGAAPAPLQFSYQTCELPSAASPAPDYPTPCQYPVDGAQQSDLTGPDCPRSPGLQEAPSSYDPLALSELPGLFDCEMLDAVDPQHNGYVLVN
Chain of SIK3 (Q9Y2K2 whole entry): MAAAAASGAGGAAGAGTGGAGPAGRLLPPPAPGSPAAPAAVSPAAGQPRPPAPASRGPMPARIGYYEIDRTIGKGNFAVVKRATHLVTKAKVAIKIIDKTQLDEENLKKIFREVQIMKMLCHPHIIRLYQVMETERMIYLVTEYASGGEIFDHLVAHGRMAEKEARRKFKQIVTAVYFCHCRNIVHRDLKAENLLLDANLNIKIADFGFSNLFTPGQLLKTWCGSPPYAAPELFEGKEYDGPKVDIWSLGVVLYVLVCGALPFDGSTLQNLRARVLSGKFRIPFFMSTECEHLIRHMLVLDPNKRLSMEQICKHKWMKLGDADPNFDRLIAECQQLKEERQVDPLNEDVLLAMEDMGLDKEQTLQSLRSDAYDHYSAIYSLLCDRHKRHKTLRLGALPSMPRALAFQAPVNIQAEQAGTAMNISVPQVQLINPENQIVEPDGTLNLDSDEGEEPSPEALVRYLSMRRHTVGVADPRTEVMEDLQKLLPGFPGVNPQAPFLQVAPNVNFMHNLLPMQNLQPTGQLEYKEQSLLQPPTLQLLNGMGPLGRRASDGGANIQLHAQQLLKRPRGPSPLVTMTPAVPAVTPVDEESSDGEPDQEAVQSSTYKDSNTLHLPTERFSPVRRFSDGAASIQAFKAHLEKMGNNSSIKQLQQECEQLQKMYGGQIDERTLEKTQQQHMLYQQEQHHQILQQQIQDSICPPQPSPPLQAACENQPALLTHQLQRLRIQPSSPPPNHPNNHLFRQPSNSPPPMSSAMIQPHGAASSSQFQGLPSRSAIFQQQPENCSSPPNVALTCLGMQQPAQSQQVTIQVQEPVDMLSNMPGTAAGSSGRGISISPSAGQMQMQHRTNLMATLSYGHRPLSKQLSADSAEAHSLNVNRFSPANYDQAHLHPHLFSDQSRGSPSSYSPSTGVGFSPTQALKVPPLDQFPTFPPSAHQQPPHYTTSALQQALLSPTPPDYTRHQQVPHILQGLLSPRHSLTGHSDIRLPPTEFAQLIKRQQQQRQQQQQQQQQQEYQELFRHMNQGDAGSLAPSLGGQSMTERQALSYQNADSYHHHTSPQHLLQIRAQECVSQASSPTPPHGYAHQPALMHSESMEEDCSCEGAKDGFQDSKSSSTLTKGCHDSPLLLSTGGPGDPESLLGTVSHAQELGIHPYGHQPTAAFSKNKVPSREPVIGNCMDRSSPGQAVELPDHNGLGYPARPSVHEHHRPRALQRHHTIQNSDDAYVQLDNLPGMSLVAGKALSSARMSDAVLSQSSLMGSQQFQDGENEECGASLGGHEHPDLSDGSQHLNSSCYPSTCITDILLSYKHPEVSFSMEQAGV

| SMILES | IC50 (SIK3) [nM] | IC50 (SIK1) [nM] | IC50 (SIK2) [nM] |
| --- | --- | --- | --- |
| COc1c(O)cccc1-c1nc(-n2cnc3cc(Nc4ccc(C)nn4)ccc32)ccc1C(C)O (stereo not drawn) [Example 203, 3-[3-(1-Hydroxyethyl)-6-[5-[(6-methylpyridazin-3-yl)amino]benzimidazol-1-yl]-2-pyridyl]-2-methoxy-phenol; formic acid] | 55.4 | 14400 | 520 |
| Cc1ccc(Nc2ccc3c(c2)ncn3-c2ccc(C(C)O)c(-c3nn(C(F)F)cc3C)n2)nn1 (stereo not drawn) [Example 363, 1-[2-[1-(difluoromethyl)-4-methyl-pyrazol-3-yl]-6-[5-[(6-methylpyridazin-3-yl)amino]benzimidazol-1-yl]-3-pyridyl]ethanol] | 1 | 152 | 1.2 |
| Cc1ccc(Nc2ccc3c(c2)ncn3-c2ccc(C(C)O)c(N3CCOC(C#N)C3)n2)nn1 (stereo not drawn) [Example 360, 4-[3-(1-hydroxyethyl)-6-[5-[(6-methylpyridazin-3-yl)amino]benzimidazol-1-yl]-2-pyridyl]morpholine-2-carbonitrile] | 7.9 | 2320 | 42.3 |
| Cc1cc(C#N)nn1-c1nc(-n2cnc3cc(CN4CCCC4=O)ccc32)ccc1C(C)O (stereo not drawn) [Example 213, 1-[3-(1-Hydroxyethyl)-6-[5-[(2-oxopyrrolidin-1-yl)methyl]benzimidazol-1-yl]-2-pyridyl]-5-methyl-pyrazole-3-carbonitrile] | 174 | 7580 | 1520 |
| Cc1ccc(Nc2ccc3c(c2)ncn3-c2ccc(C(C)O)c(-c3ccnn3C3CC3(F)F)n2)nn1 (stereo not drawn) [Example 227, 1-[2-[2-(2,2-Difluorocyclopropyl)pyrazol-3-yl]-6-[5-[(6-methylpyridazin-3-yl)amino]benzimidazol-1-yl]-3-pyridyl]ethanol; formic acid] | 28.6 | 4170 | 225 |
| COc1cc2ncn(-c3ccc(C(O)C4CC4)c(-c4cccc(Cl)c4)n3)c2cc1OC (stereo not drawn) [Example 25, (2-(3-Chlorophenyl)-6-(5,6-dimethoxy-1H-benzo[d]imidazol-1-yl)pyridin-3-yl)(cyclopropyl)methanol] | 987 | 777 | 605 |
| CCC(O)c1ccc(-n2cnc3cc(OC)c(OC)cc32)nc1-c1cccc(Cl)c1 (stereo not drawn) [Example 24, 1-(2-(3-Chlorophenyl)-6-(5,6-dimethoxy-1H-benzo[d]imidazol-1-yl)pyridin-3-yl)propan-1-ol] | 727 | 353 | 192 |
| Cc1ccc(Nc2ccc3c(c2)ncn3-c2ccc(C(C)O)c(N3CC4CC3C(F)(F)C4)n2)nn1 (stereo not drawn) [Example 324, 1-[2-(6,6-difluoro-2-azabicyclo[2.2.1]heptan-2-yl)-6-[5-[(6-methylpyridazin-3-yl)amino]benzimidazol-1-yl]-3-pyridyl]ethanol] | 0.8 | 577 | 10.5 |
| Cc1ccc(Nc2ccc3ncn(-c4ccc([C@@H](C)O)c(-n5nc(C#N)cc5C)n4)c3c2)nn1 [Example 247, 1-[3-[(1R)-1-hydroxyethyl]-6-[6-[(6-methylpyridazin-3-yl)amino]benzimidazol-1-yl]-2-pyridyl]-5-methyl-pyrazole-3-carbonitrile] | 46.1 | 1440 | 174 |
| Cc1ccc(Nc2cc3ncn(-c4ccc(CO)c(-n5nc(C#N)cc5C)n4)c3cc2F)nn1 [Example 347, 1-[6-[6-fluoro-5-[(6-methylpyridazin-3-yl)amino]benzimidazol-1-yl]-3-(hydroxymethyl)-2-pyridyl]-5-methyl-pyrazole-3-carbonitrile] | 3.9 | 1120 | 6.3 |
| CC(O)c1ccc(-n2cnc3cc(OCCN4CCOCC4)ccc32)nc1-n1ccc(C(F)(F)F)n1 (stereo not drawn) [Example 62, 1-[6-[5-(2-Morpholinoethoxy)benzimidazol-1-yl]-2-[3-(trifluoromethyl)pyrazol-1-yl]-3-pyridyl]ethanol] | 176 | 1670 | 189 |
| Cc1cc(C#N)nn1-c1nc(-n2cnc3cc(Nc4ccc(OCC(F)F)nn4)ccc32)ccc1C(C)O (stereo not drawn) [Example 195, 1-[6-[5-[[6-(2,2-Difluoroethoxy)pyridazin-3-yl]amino]benzimidazol-1-yl]-3-(1-hydroxyethyl)-2-pyridyl]-5-methyl-pyrazole-3-carbonitrile] | 1.4 | 20 | 3.1 |
| COCC(O)c1ccc(-n2cnc3cc(Nc4ccc(C)nn4)ccc32)nc1-n1nc(C#N)cc1C (stereo not drawn) [Example 234, 1-[3-(1-Hydroxy-2-methoxy-ethyl)-6-[5-[(6-methylpyridazin-3-yl)amino]benzimidazol-1-yl]-2-pyridyl]-5-methyl-pyrazole-3-carbonitrile; formic acid] | 1.1 | 756 | 9.3 |
| Cc1cc(C#N)nn1-c1nc(-n2cnc3cc(F)c(Nc4ccc(F)c(F)c4F)cc32)ccc1C(C)O (stereo not drawn) [Example 379, 1-[6-[5-fluoro-6-(2,3,4-trifluoroanilino)benzimidazol-1-yl]-3-(1-hydroxyethyl)-2-pyridyl]-5-methyl-pyrazole-3-carbonitrile] | 0.4 | 1 | 0.2 |
| COc1cc2ncn(-c3ccc(C(C)O)c(-c4cccc(Cl)c4F)n3)c2cc1OC (stereo not drawn) [Example 20, 1-(2-(3-Chloro-2-fluorophenyl)-6-(5,6-dimethoxy-1H-benzo[d]imidazol-1-yl)pyridin-3-yl)ethan-1-ol] | 19.8 | 12 | 5 |
| Cc1cc(S(C)(=O)=O)c(Nc2ccc3c(c2)ncn3-c2ccc(C(C)O)c(-n3nc(C#N)cc3C)n2)nn1 (stereo not drawn) [Example 292, 1-[3-(1-hydroxyethyl)-6-[5-[(6-methyl-4-methylsulfonyl-pyridazin-3-yl)amino]benzimidazol-1-yl]-2-pyridyl]-5-methyl-pyrazole-3-carbonitrile] | 24.2 | 617 | 34.2 |
| Cc1ccc(Nc2ccc3c(c2)ncn3-c2ccc(C(C)O)c(-n3nc(C(F)(F)F)c4c3CCNC4)n2)nn1 (stereo not drawn) [Example 97, 1-[6-[5-[(6-Methylpyridazin-3-yl)amino]benzimidazol-1-yl]-2-[3-(trifluoromethyl)-4,5,6,7-tetrahydropyrazolo[4,3-c]pyridin-1-yl]-3-pyridyl]ethanol] | 0.5 | 7 | 0.2 |
| Cc1ccc(Nc2ccc3c(c2)ncn3-c2ccc(C(C)O)c(-n3nc(C#N)c4c3CCNC4)n2)nn1 (stereo not drawn) [Example 205, 1-[3-(1-Hydroxyethyl)-6-[5-[(6-methylpyridazin-3-yl)amino]benzimidazol-1-yl]-2-pyridyl]-4,5,6,7-tetrahydropyrazolo[4,3-c]pyridine-3-carbonitrile] | 0.3 | 3 | 0.3 |
| Cc1nnc(Nc2ccc3c(c2)ncn3-c2ccc(C(C)O)c(-n3nc(C#N)cc3C)n2)s1 (stereo not drawn) [Example 111, 1-[3-(1-Hydroxyethyl)-6-[5-[(5-methyl-1,3,4-thiadiazol-2-yl)amino]benzimidazol-1-yl]-2-pyridyl]-5-methyl-pyrazole-3-carbonitrile] | 0.8 | 11 | 1.4 |
| Cc1ccc(Nc2ccc3c(c2)ncn3-c2ccc(C(C)O)c(-n3nc(C(F)(F)F)c4c3CCN(C)C4)n2)nn1 (stereo not drawn) [Example 171, 1-[6-[5-[(6-Methylpyridazin-3-yl)amino]benzimidazol-1-yl]-2-[5-methyl-3-(trifluoromethyl)-6,7-dihydro-4H-pyrazolo[4,3-c]pyridin-1-yl]-3-pyridyl]ethanol; formic acid] | 0.7 | 9 | 0.3 |
| Cc1ccc(Nc2ccc3c(c2)ncn3-c2ccc(C(C)O)c(N3CC(C)(C#N)C3)n2)nn1 (stereo not drawn) [Example 183, 1-[3-(1-Hydroxyethyl)-6-[5-[(6-methylpyridazin-3-yl)amino]benzimidazol-1-yl]-2-pyridyl]-3-methyl-azetidine-3-carbonitrile] | 17.5 | 2830 | 94.5 |
| Cc1ccc(Nc2ccc3c(c2)ncn3-c2ccc(C(C)O)c(N3CC4CC4(C#N)C3)n2)nn1 (stereo not drawn) [Example 321, 3-[3-(1-hydroxyethyl)-6-[5-[(6-methylpyridazin-3-yl)amino]benzimidazol-1-yl]-2-pyridyl]-3-azabicyclo[3.1.0]hexane-1-carbonitrile] | 3.5 | 1100 | 19.2 |
| Cc1cc(C#N)nn1-c1nc(-n2cnc3cc(OCCN4CCOCC4)ccc32)ccc1C(C)O (stereo not drawn) [Example 68, 1-[3-(1-Hydroxyethyl)-6-[5-(2-morpholinoethoxy)benzimidazol-1-yl]-2-pyridyl]-5-methyl-pyrazole-3-carbonitrile] | 29.7 | 179 | 27.7 |
| Cc1cc(C#N)nn1-c1nc(-n2cnc3cc(N4CCN(C5COC5)CC4)c(Br)cc32)ccc1C(C)O (stereo not drawn) [Example 130, 1-[6-[6-Bromo-5-[4-(oxetan-3-yl)piperazin-1-yl]benzimidazol-1-yl]-3-(1-hydroxyethyl)-2-pyridyl]-5-methyl-pyrazole-3-carbonitrile] | 339 | 589 | 215 |
| COc1cc2ncn(-c3ccc(C(C)O)c(-n4ccc(C(F)(F)F)n4)n3)c2cc1OC (stereo not drawn) [Example 63, 1-[6-(5,6-Dimethoxybenzimidazol-1-yl)-2-[3-(trifluoromethyl)pyrazol-1-yl]-3-pyridyl]ethanol] | 152 | 93 | 34.6 |
